Laboratory results from patent US11241393B2 (priority 2020, dated 2022).
Read-outs that look alike come from different tables or passages of the source.

Experiments:
[1] = test system: influenza virus A/Aichi/2/68 (H3N2); test: organism not typed; format: cell-based; conditions: for IC50: MDCK
in vitro [2] = conditions: dog
human cytomegalovirus = format: cell-based
in vitro [3] = conditions: cattle
in vitro [4] = conditions: human
in vitro [5] = test: in vitro
in vitro [6] = conditions: human; remark: listed apart in the source
vaccinia virus = format: cell-based; conditions: in vitro, cell culture
[7] = rat, in vivo

With `CC(N)C12CC3CC(CC(C3)C1)C2` (centres unmarked) [Rimantadine, reference compound] as the compound, how does the SI [1] read?
Its SI is 3133.0.

And the IC50 [1]?
The IC50 was 0.03 µM.

And the CC50 (in vitro [2])?
Its CC50 is 94 µM.

With `CCCCCCCCCC[Si](C)(C)CCOC1OC(CO)C(O)C(O)C1O` [Sil 2, 2-(Dimethyldecylsilyl)ethyl-b-D-glucopyranoside] as the compound, how does the SI [1] read?
Its SI is 2.43.

And the “antiviral activity toward influenza virus A(H3N2)” value [1]?
Its value is “marked activity”.

And the IC50 [1]?
Its IC50 is 7.38 µM.

And the “cytotoxicity (summary in words)” value (CT cells)?
The value was “wider toxicity”.

What about the “cytotoxicity (summary in words)” value (MDCK cells) of the same compound?
Its value is “wider toxicity”.

And the CC50 (MDCK cells; dog)?
The CC50 was 18 µM.

What about the “antiviral activity against human cytomegalovirus” value (human cytomegalovirus) of the same compound?
Its value is “Close to borderline effect”.

And the CC50 (in vitro [2])?
The CC50 was < 20 µM.

And the CC50 (in vitro [3])?
Its CC50 is < 20 µM.

What about the CC50 (in vitro [4]) of the same compound?
Its CC50 is < 20 µM.

And the “cytotoxicity (summary in words)” value (HEp-2 cells)?
The value was “wider toxicity”.

What about the CC50 (in vitro [5]) of the same compound?
Its CC50 is < 20 µM.

With `CCCCCCCCCCCC[Si](C)(C)CCOC1OC(CO)C(O)C(O)C1O` [Sil 3, 2-(Dimethyldodecylsilyl)ethyl-b-D-glucopyranoside] as the compound, how does the SI [1] read?
Its SI is 2.9.

What about the “antiviral activity toward influenza virus A(H3N2)” value [1] of the same compound?
The value was “marked activity”.

And the IC50 [1]?
Its IC50 is 6.6 µM.

What about the CC50 (MDCK cells; dog) of the same compound?
The CC50 was 19.2 µM.

What about the CC50 (in vitro [2]) of the same compound?
The CC50 was < 20 µM.

What about the CC50 (in vitro [3]) of the same compound?
Its CC50 is < 20 µM.

What about the CC50 (in vitro [5]) of the same compound?
Its CC50 is < 20 µM.

For `CCCC[Si](C)(C)OC1OC(CO)C(O)C(O)C1O` [Sil 7, Butyldimethylsilyl-a-D-galactopyranoside], which CC50 (in vitro [6]) is on record?
The CC50 was < 20 µM.

What about the “antiviral activity against human cytomegalovirus” value (human cytomegalovirus) of the same compound?
Its value is “Close to borderline effect”.

And the CC50 (in vitro [2])?
Its CC50 is 444 µM.

What does the source list for `CCCCCCCCCCCC[Si](C)(C)OC1OC(CO)C(O)C(O)C1O` [Sil 9, Dodecyldimethylsilyl-a-D-glucopyranoside]?
antiviral activity versus vaccinia virus (vaccinia virus): marked activity; CC50 (in vitro [2]): 444 µM

With `CCCCCCCCCCCCCCCCCC[Si](CCCCCCCCCCCCCCCCCC)(OC1OC(COC(C)=O)C(OC(C)=O)C(OC(C)=O)C1OC(C)=O)OC1OC(COC(C)=O)C(OC(C)=O)C(OC(C)=O)C1OC(C)=O` [Sil 15, 1-O-Dioctadecylsilyl-di(2,3,4,6-O-tetraacetyl-b-D-galactopyranoside)] as the compound, how does the “antiviral activity against human cytomegalovirus” value (human cytomegalovirus; in vitro, cell culture) read?
The value was “Close to borderline effect”.

What does the source list for `CCCCCCCCCCCC[Si](C)(C)O[C@@H]1O[C@H](COC(C)=O)[C@@H](OC(C)=O)[C@H](OC(C)=O)[C@H]1OC(C)=O` [Sil 19, 1-O-Dimethyl(dodecyl)silyl-(2,3,4,6-O-tetraacetyl-b-D-glucopyranoside)]?
CC50 (MDCK cells): 65.5 µM; antiviral activity against human cytomegalovirus (human cytomegalovirus): Close to borderline effect

With `CCCCCCCCCCCCCCCCCC[Si](C)(C)O[C@@H]1O[C@H](COC(C)=O)[C@@H](OC(C)=O)[C@H](OC(C)=O)[C@H]1OC(C)=O` [Sil 20, 1-O-Dimethyl(octadecyl)silyl-(2,3,4,6-O-tetraacetyl-b-D-glucopyranoside)] as the compound, how does the CC50 (MDCK cells) read?
Its CC50 is 2530 µM.

What about the “antiviral activity toward the cytomegalovirus” value (human cytomegalovirus) of the same compound?
The value was “marked activity”.

For `CCCCCCCCCCCC(=O)O[Si](OC(=O)CCCCCCCCCCC)(c1ccccc1)c1ccccc1` [Sil 25, Di(dodecanoyloxy)diphenylsilane], which SI [1] is on record?
The SI was 5.82.

And the “antiviral activity toward influenza virus A(H3N2)” value [1]?
Its value is “marked activity”.

What about the IC50 [1] of the same compound?
The IC50 was 9.6 µM.

And the CC50 (in vitro [2])?
The CC50 was 55.9 µM.

And the CC50 (in vitro [5])?
Its CC50 is < 20 µM.

What does the source list for `CCCCCCCCCCCCCCCC(=O)O[Si](OC(=O)CCCCCCCCCCCCCCC)(c1ccccc1)c1ccccc1` [Sil 27, Di(hexadecanoyloxy)diphenylsilane]?
SI (human cytomegalovirus): 30.9; antiviral activity against human cytomegalovirus (human cytomegalovirus): marked activity; CC50 (in vitro [2]): 317 µM

What does the source list for `CCCCCCCCCCC(=O)O[Si](C)(C)OC(=O)CCCCCCCCCC` [Sil 34, Di(undecanoyloxy)dimethylsilane]?
antiviral activity against human cytomegalovirus (human cytomegalovirus): Close to borderline effect; CC50 (in vitro [2]): 2530 µM

What does the source list for `N.N.[Cl-].[Cl-].[OH-].[OH-].[Pt+4]` [Standard Cis-Oxoplatin, cis-oxoplatin]?
tissues with highest platinum concentration compared with the other treatment groups ([7]; iv): highest platinum concentration in the stomach and the liver; tissues with highest platinum concentration compared with the other treatment groups ([7]; po): highest accumulation of platinum in the spleen and lungs
